The term pEC50 denotes −log10 of the EC50, conventionally taken in molar units.

SMILES strings stand for the structures. pEC50: −log10 of the molar value.

The results in this text go back to ChEMBL document CHEMBL6134927, “Novel Pyrido[3,4-d]pyrimidin-4-one and Pyrimido[5,4-d]pyrimidin-4-one Derivatives as TREM2 Agonists for Treating Parkinson's Disease” (ACS Med Chem Lett, 2025).

This experiment concerns the target T1, Triggering receptor expressed on myeloid cells 2 (Homo sapiens, UniProt Q9NZC2).
T1 sequence (Q9NZC2 whole entry): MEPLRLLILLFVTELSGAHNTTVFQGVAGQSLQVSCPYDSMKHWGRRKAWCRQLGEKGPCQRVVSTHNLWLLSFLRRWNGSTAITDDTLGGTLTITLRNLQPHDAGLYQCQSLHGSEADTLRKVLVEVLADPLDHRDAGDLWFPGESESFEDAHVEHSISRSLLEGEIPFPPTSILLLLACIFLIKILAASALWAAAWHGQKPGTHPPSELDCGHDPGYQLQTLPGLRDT
In words: Agonist activity at human TREM2 expressed in HEK cells co-expressing human DAP12 assessed as increase in Syk phosphorylation incubated for 30 mins by AlphaLISA assay. It is filed as cell-based.
Take `Cc1cc(C2CN(c3nc(-c4ccc(Cl)cc4F)c4nc(C(F)F)n(C)c(=O)c4n3)CCO2)ccn1` (stereo unspecified): the pEC50 is 8.70.

Turning to `COc1cc([C@H]2CN(c3nc(-c4ccc(Cl)cc4F)c4nc(C(F)(F)F)n(C)c(=O)c4n3)CCO2)ccn1`, the pEC50 was 8.40.

Turning to `C[C@H]1CN(c2nc(-c3ccc(Cl)cc3F)c3nc(C(F)(F)F)n(C)c(=O)c3n2)C[C@@H](c2cnn(C3CC3)c2)O1`, the pEC50 was 8.70.

As to `Cn1cc([C@H]2CN(c3nc(-c4ccc(Cl)cc4F)c4nc(C(F)F)n(C)c(=O)c4n3)CCO2)cn1`, the pEC50 is 8.30.

In the case of `Cc1cc([C@@H]2CN(c3nc(-c4ccc(Cl)cc4F)c4nc(C(F)F)n(C)c(=O)c4n3)CCO2)ccn1`, the pEC50 was 9.00.

For `Cc1cc([C@@H]2CN(c3cc4c(=O)n(C)c(C(F)F)nc4c(-c4ccc(Cl)cc4F)n3)CCO2)ccn1`, the pEC50 is 8.52.
